Test results: BindingDB's records for doi:10.1016/S0960-894X(01)80247-X (1994)

Key:
[1] = biological target: T1, Endothelin receptor type B (Rattus norvegicus, UniProt P21451); assay: Concentration required to produce 50% inhibition of binding against ET B receptor obtained from rat brain membrane
T1 sequence (P21451 whole entry): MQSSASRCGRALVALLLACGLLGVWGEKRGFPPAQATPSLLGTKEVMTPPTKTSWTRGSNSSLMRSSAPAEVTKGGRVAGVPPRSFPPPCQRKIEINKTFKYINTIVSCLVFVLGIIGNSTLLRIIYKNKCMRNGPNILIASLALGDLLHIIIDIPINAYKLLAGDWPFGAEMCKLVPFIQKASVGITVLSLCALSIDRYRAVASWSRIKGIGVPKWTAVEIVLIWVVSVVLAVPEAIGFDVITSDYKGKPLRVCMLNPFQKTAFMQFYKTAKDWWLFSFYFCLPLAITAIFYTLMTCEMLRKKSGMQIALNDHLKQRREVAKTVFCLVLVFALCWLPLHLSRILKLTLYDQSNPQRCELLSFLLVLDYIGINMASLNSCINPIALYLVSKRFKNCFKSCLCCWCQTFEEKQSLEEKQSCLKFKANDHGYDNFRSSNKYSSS

[2] = biological target: T2, Endothelin-1 receptor (Rattus norvegicus, UniProt P26684); assay: Concentration required to produce 50% inhibition of binding against ET A receptor obtained from rat thoracic aortic membrane
T2 sequence (P26684 whole entry): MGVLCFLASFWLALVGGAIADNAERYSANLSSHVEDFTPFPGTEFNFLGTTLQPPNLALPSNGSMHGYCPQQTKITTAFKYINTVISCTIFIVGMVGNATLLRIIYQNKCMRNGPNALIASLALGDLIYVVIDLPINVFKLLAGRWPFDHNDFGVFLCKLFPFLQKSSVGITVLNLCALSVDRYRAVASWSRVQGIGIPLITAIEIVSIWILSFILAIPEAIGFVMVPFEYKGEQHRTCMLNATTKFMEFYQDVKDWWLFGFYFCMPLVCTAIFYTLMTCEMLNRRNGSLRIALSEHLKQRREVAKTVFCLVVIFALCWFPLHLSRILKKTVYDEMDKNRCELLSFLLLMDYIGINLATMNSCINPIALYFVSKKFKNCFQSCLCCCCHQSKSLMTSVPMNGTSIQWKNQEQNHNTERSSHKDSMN

pIC50 [1] | pIC50 [2] | Structure (SMILES)
7.55 | 6.13 | CC[C@@H](C)[C@H](NC(=O)[C@H](CC(=O)O)NC(=O)[C@H](CC(C)C)NC(=O)[C@H](Cc1cnc[nH]1)NC(=O)[C@H](CS)NC(=O)[C@H](Cc1ccccc1)NC(=O)[C@H](Cc1ccc(O)cc1)NC(=O)[C@@H](NC(=O)[C@H](CS)NC(=O)[C@H](CCC(=O)O)NC(=O)[C@H](CCCCN)NC(=O)[C@H](CC(=O)O)NC(=O)[C@H](CCSC)NC(=O)[C@H](CC(C)C)NC(=O)[C@H](CO)NC(=O)[C@H](CO)NC(=O)[C@H](CS)NC(=O)[C@H](CO)NC(=O)[C@@H](N)CS)C(C)C)C(=O)N[C@H](Cc1cnc[nH]1)C(=O)N[C@@H](Cc1c[nH]c2ccccc12)C(=O)O [Endothelin-1 analogue]
9.59 | 7.04 | CC[C@H](C)[C@H](NC(=O)[C@H](CC(=O)O)NC(=O)[C@H](CC(C)C)NC(=O)[C@H](Cc1cnc[nH]1)NC(=O)[C@H](CS)NC(=O)[C@H](Cc1ccccc1)NC(=O)[C@H](Cc1ccc(O)cc1)NC(=O)[C@@H](NC(=O)[C@H](CS)NC(=O)[C@H](CCC(=O)O)NC(=O)[C@H](CCCCN)NC(=O)[C@H](CC(=O)O)NC(=O)[C@H](CCSC)NC(=O)[C@H](CC(C)C)NC(=O)[C@H](CO)NC(=O)[C@H](CO)NC(=O)[C@H](CS)NC(=O)[C@H](CO)NC(=O)[C@@H](N)CS)C(C)C)C(=O)N[C@@H](C(=O)N[C@@H](Cc1c[nH]c2ccccc12)C(=O)O)C1CCCCC1 [Endothelin-1 analogue]
8.6 | 6.85 | CC[C@H](C)[C@H](NC(=O)[C@H](CC(=O)O)NC(=O)[C@H](CC(C)C)NC(=O)[C@H](Cc1cnc[nH]1)NC(=O)[C@H](CS)NC(=O)[C@H](Cc1ccccc1)NC(=O)[C@H](Cc1ccc(O)cc1)NC(=O)[C@@H](NC(=O)[C@H](CS)NC(=O)[C@H](CCC(=O)O)NC(=O)[C@H](CCCCN)NC(=O)[C@H](CC(=O)O)NC(=O)[C@H](CCSC)NC(=O)[C@H](CC(C)C)NC(=O)[C@H](CO)NC(=O)[C@H](CO)NC(=O)[C@H](CS)NC(=O)[C@H](CO)NC(=O)[C@@H](N)CS)C(C)C)C(=O)N[C@@H](C(=O)N[C@@H](Cc1c[nH]c2ccccc12)C(=O)O)c1ccccc1 [Endothelin-1 analogue]
9.77 | 6.71 | CC[C@H](C)[C@H](NC(=O)[C@H](CC(=O)O)NC(=O)[C@H](CC(C)C)NC(=O)[C@H](Cc1cnc[nH]1)NC(=O)[C@H](CS)NC(=O)[C@H](Cc1ccccc1)NC(=O)[C@H](Cc1ccc(O)cc1)NC(=O)[C@@H](NC(=O)[C@H](CS)NC(=O)[C@H](CCC(=O)O)NC(=O)[C@H](CCCCN)NC(=O)[C@H](CC(=O)O)NC(=O)[C@H](CCSC)NC(=O)[C@H](CC(C)C)NC(=O)[C@H](CO)NC(=O)[C@H](CO)NC(=O)[C@H](CS)NC(=O)[C@H](CO)NC(=O)[C@@H](N)CS)C(C)C)C(=O)N[C@@H](Cc1c[nH]c2ccccc12)C(=O)N[C@@H](Cc1c[nH]c2ccccc12)C(=O)O [Endothelin-1 analogue]

The next lines start with the compound.

Structure (SMILES) | pIC50 [1] | pIC50 [2]
CCC(CC)C[C@@H](NC(=O)[C@@H](NC(=O)[C@H](CC(=O)O)NC(=O)[C@H](CC(C)C)NC(=O)[C@H](Cc1cnc[nH]1)NC(=O)[C@H](CS)NC(=O)[C@H](Cc1ccccc1)NC(=O)[C@H](Cc1ccc(O)cc1)NC(=O)[C@@H](NC(=O)[C@H](CS)NC(=O)[C@H](CCC(=O)O)NC(=O)[C@H](CCCCN)NC(=O)[C@H](CC(=O)O)NC(=O)[C@H](CCSC)NC(=O)[C@H](CC(C)C)NC(=O)[C@H](CO)NC(=O)[C@H](CO)NC(=O)[C@H](CS)NC(=O)[C@H](CO)NC(=O)[C@@H](N)CS)C(C)C)[C@H](C)CC)C(=O)N[C@@H](Cc1c[nH]c2ccccc12)C(=O)O [Endothelin-1 analogue] | 9.78 | 8.06
CC[C@@H](C)[C@@H](NC(=O)[C@@H](NC(=O)[C@H](CC(=O)O)NC(=O)[C@H](CC(C)C)NC(=O)[C@H](Cc1cnc[nH]1)NC(=O)[C@H](CS)NC(=O)[C@H](Cc1ccccc1)NC(=O)[C@H](Cc1ccc(O)cc1)NC(=O)[C@@H](NC(=O)[C@H](CS)NC(=O)[C@H](CCC(=O)O)NC(=O)[C@H](CCCCN)NC(=O)[C@H](CC(=O)O)NC(=O)[C@H](CCSC)NC(=O)[C@H](CC(C)C)NC(=O)[C@H](CO)NC(=O)[C@H](CO)NC(=O)[C@H](CS)NC(=O)[C@H](CO)NC(=O)[C@@H](N)CS)C(C)C)[C@@H](C)CC)C(=O)N[C@@H](Cc1c[nH]c2ccccc12)C(=O)O [Endothelin-1 analogue] |  | 7.59
CC[C@@H](C)[C@H](NC(=O)[C@H](CC(=O)O)NC(=O)[C@H](CC(C)C)NC(=O)[C@H](Cc1cnc[nH]1)NC(=O)[C@H](CS)NC(=O)[C@H](Cc1ccccc1)NC(=O)[C@H](Cc1ccc(O)cc1)NC(=O)[C@@H](NC(=O)[C@H](CS)NC(=O)[C@H](CCC(=O)O)NC(=O)[C@H](CCCCN)NC(=O)[C@H](CC(=O)O)NC(=O)[C@H](CCSC)NC(=O)[C@H](CC(C)C)NC(=O)[C@H](CO)NC(=O)[C@H](CO)NC(=O)[C@H](CS)NC(=O)[C@H](CO)NC(=O)[C@@H](N)CS)C(C)C)C(=O)N[C@@H](C(=O)N[C@@H](Cc1c[nH]c2ccccc12)C(=O)O)C(C)C [Endothelin-1 analogue] | 9.05 | 9
CC[C@@H](C)[C@H](NC(=O)[C@H](CC(=O)O)NC(=O)[C@H](CC(C)C)NC(=O)[C@H](Cc1cnc[nH]1)NC(=O)[C@H](CS)NC(=O)[C@H](Cc1ccccc1)NC(=O)[C@H](Cc1ccc(O)cc1)NC(=O)[C@@H](NC(=O)[C@H](CS)NC(=O)[C@H](CCC(=O)O)NC(=O)[C@H](CCCCN)NC(=O)[C@H](CC(=O)O)NC(=O)[C@H](CCSC)NC(=O)[C@H](CC(C)C)NC(=O)[C@H](CO)NC(=O)[C@H](CO)NC(=O)[C@H](CS)NC(=O)[C@H](CO)NC(=O)[C@@H](N)CS)C(C)C)C(=O)N[C@H](CC(C)C)C(=O)N[C@@H](Cc1c[nH]c2ccccc12)C(=O)O [Endothelin-1 analogue] | 9.94 | 7.97
CC[C@@H](C)[C@H](NC(=O)[C@H](CC(=O)O)NC(=O)[C@H](CC(C)C)NC(=O)[C@H](Cc1cnc[nH]1)NC(=O)[C@H](CS)NC(=O)[C@H](Cc1ccccc1)NC(=O)[C@H](Cc1ccc(O)cc1)NC(=O)[C@@H](NC(=O)[C@H](CS)NC(=O)[C@H](CCC(=O)O)NC(=O)[C@H](CCCCN)NC(=O)[C@H](CC(=O)O)NC(=O)[C@H](CCSC)NC(=O)[C@H](CC(C)C)NC(=O)[C@H](CO)NC(=O)[C@H](CO)NC(=O)[C@H](CS)NC(=O)[C@H](CO)NC(=O)[C@@H](N)CS)C(C)C)C(=O)N[C@H](CCC(N)=O)C(=O)N[C@@H](Cc1c[nH]c2ccccc12)C(=O)O [Endothelin-1 analogue] | 5.59 | 5.27
CC[C@H](C)[C@H](NC(=O)[C@H](CC(=O)O)NC(=O)[C@H](CC(C)C)NC(=O)[C@H](Cc1cnc[nH]1)NC(=O)[C@H](CS)NC(=O)[C@H](Cc1ccccc1)NC(=O)[C@H](Cc1ccc(O)cc1)NC(=O)[C@@H](NC(=O)[C@H](CS)NC(=O)[C@H](CCC(=O)O)NC(=O)[C@H](CCCCN)NC(=O)[C@H](CC(=O)O)NC(=O)[C@H](CCSC)NC(=O)[C@H](CC(C)C)NC(=O)[C@H](CO)NC(=O)[C@H](CO)NC(=O)[C@H](CS)NC(=O)[C@H](CO)NC(=O)[C@@H](N)CS)C(C)C)C(=O)N[C@H](C(=O)N[C@@H](Cc1c[nH]c2ccccc12)C(=O)O)[C@@H](C)CC [Endothelin-1 analogue] |  | 9.93
CC[C@H](C)[C@H](NC(=O)[C@H](CC(=O)O)NC(=O)[C@H](CC(C)C)NC(=O)[C@H](Cc1cnc[nH]1)NC(=O)[C@H](CS)NC(=O)[C@H](Cc1ccccc1)NC(=O)[C@H](Cc1ccc(O)cc1)NC(=O)[C@@H](NC(=O)[C@H](CS)NC(=O)[C@H](CCC(=O)O)NC(=O)[C@H](CCCCN)NC(=O)[C@H](CC(=O)O)NC(=O)[C@H](CCSC)NC(=O)[C@H](CC(C)C)NC(=O)[C@H](CO)NC(=O)[C@H](CO)NC(=O)[C@H](CS)NC(=O)[C@H](CO)NC(=O)[C@@H](N)CS)C(C)C)C(=O)N[C@H](C(=O)N[C@@H](Cc1c[nH]c2ccccc12)C(=O)O)c1ccccc1 [Endothelin-1 analogue] | 9.76 | 8.89
CC[C@H](C)[C@H](NC(=O)[C@H](CC(=O)O)NC(=O)[C@H](CC(C)C)NC(=O)[C@H](Cc1cnc[nH]1)NC(=O)[C@H](CS)NC(=O)[C@H](Cc1ccccc1)NC(=O)[C@H](Cc1ccc(O)cc1)NC(=O)[C@@H](NC(=O)[C@H](CS)NC(=O)[C@H](CCC(=O)O)NC(=O)[C@H](CCCCN)NC(=O)[C@H](CC(=O)O)NC(=O)[C@H](CCSC)NC(=O)[C@H](CC(C)C)NC(=O)[C@H](CO)NC(=O)[C@H](CO)NC(=O)[C@H](CS)NC(=O)[C@H](CO)NC(=O)[C@@H](N)CS)C(C)C)C(=O)N[C@H](C)C(=O)N[C@@H](Cc1c[nH]c2ccccc12)C(=O)O [Endothelin-1 analogue] | 7.96 | 5.77
